The text below walks through data of EPA's ToxValDB 9.5 (doi:10.2903/j.efsa.2008.126r).

Values after ≈ are worked out from the molar mass of the structure shown. Where only a bound is given, the exact number is not on record here.

One data set concerns Anas platyrhynchos. To be noted: for LD50: oral, mortality.
The test system of a further data set is Apis mellifera. To be noted: acute; duration: 48 hours; dermal; mortality.
Another data set concerns Canidae. The conditions noted are these: subchronic; duration: 90 days; oral; Dog Other; histopathology: nonneoplastic.
Another data set concerns Colinus virginianus. To be noted: for LD50: acute, oral, mortality.
A further data set concerns Daphnia magna. To be noted: chronic/long-term; duration: 21 days; reproduction.

The NOAEL is the highest tested level that showed no adverse finding.

Regarding `CC(C)Oc1cccc(NC(=O)c2ccccc2C(F)(F)F)c1` [Flutolanil], the LD50 in the data set with Anas platyrhynchos (acute, unspecified) was > 2000 mg/kg-day; with Anas platyrhynchos (short-term, feed), 1250 mg/kg-day; in the data set with Apis mellifera, > 200 µg/piece; with Colinus virginianus (diet), > 961 mg/kg-day; with Colinus virginianus, > 2000 mg/kg-day; in the data set on Rattus norvegicus (acute, oral, mortality) it was > 10000 mg/kg-day. For the same compound, the NOEL stood at 267 mg/kg-day in the data set with Anas platyrhynchos (reproductive) and 247 mg/kg-day in the data set on Colinus virginianus (reproduction developmental). Moreover, the NOAEL in the data set with Canidae came out at 80 mg/kg-day; in the data set on Rattus norvegicus (chronic, duration: 2 years, F, hematological), 8.7 mg/kg-day; in the data set with Rattus norvegicus (chronic, duration: 2 years, M, histopathology: nonneoplastic), 8.7 mg/kg-day; with Rattus norvegicus (reproduction developmental, organ weight), 157 mg/kg-day. Besides, the NOEC amounted to 0.53 mg/L with Daphnia magna; 0.233 mg/L with Pimephales promelas (chronic/long-term, duration: 30 days, growth); 12.9 mg/kg in the data set on Tagia sp. (chronic/long-term, duration: 56 days). Moreover, the LC50 is 4.8 µg/mL (≈ 14.8 µM) in the data set on Pimephales promelas (acute, duration: 96 hours, mortality) and > 1000 mg/kg in the data set with Tagia sp. (acute, duration: 14 days, mortality).
